Legend:
Assay in all cases: relative viability (nuclei count vs DMSO), 5 days (fraction); higher = more cells survive
Idelalisib + Lapatinib = compound: CC[C@H](Nc1ncnc2[nH]cnc12)c1nc2cccc(F)c2c(=O)n1-c1ccccc1 [Idelalisib] + CS(=O)(=O)CCNCc1ccc(-c2ccc3ncnc(Nc4ccc(OCc5cccc(F)c5)c(Cl)c4)c3c2)o1 [Lapatinib] (partner 2 µM)
Procedure, shortened: (§1)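 Dosing by pin tool came one day after lung cancer cell lines were seeded in 1536-well plates, using either one drug or a fixed anchor-drug dose plus five library-drug doses (not always all listed) in √10 steps. After 5 days, nuclei were counted on 4× images. Relative viability is treated-well nuclei count divided by vehicle-well nuclei count, and values are medians of duplicate plates.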

Idelalisib + AZD7762 = compound: CC[C@H](Nc1ncnc2[nH]cnc12)c1nc2cccc(F)c2c(=O)n1-c1ccccc1 [Idelalisib] + NC(=O)Nc1cc(-c2cccc(F)c2)sc1C(=O)N[C@H]1CCCNC1 [AZD7762] (partner 0.2 µM)
Procedure, shortened: as §1

Pemetrexed + Foretinib = compound: Nc1nc2[nH]cc(CCc3ccc(C(=O)N[C@@H](CCC(=O)O)C(=O)O)cc3)c2c(=O)[nH]1 [Pemetrexed] + COc1cc2c(Oc3ccc(NC(=O)C4(C(=O)Nc5ccc(F)cc5)CC4)cc3F)ccnc2cc1OCCCN1CCOCC1 [Foretinib] (partner 0.25 µM)
Procedure, shortened: as §1

Pemetrexed + Dasatinib = compound: Nc1nc2[nH]cc(CCc3ccc(C(=O)N[C@@H](CCC(=O)O)C(=O)O)cc3)c2c(=O)[nH]1 [Pemetrexed] + Cc1nc(Nc2ncc(C(=O)Nc3c(C)cccc3Cl)s2)cc(N2CCN(CCO)CC2)n1 [Dasatinib] (partner 0.075 µM)
Procedure, shortened: as §1

| Cell Line | relative viability (Idelalisib + Lapatinib; first compound 0.04 µM) | relative viability (Idelalisib + Lapatinib; first compound 0.1265 µM) | relative viability (Idelalisib + Lapatinib; first compound 1.265 µM) | relative viability (Idelalisib + Lapatinib; first compound 4 µM) | relative viability (Idelalisib + AZD7762; first compound 0.04 µM) | relative viability (Idelalisib + AZD7762; first compound 0.1265 µM) | relative viability (Idelalisib + AZD7762; first compound 0.4 µM) | relative viability (Idelalisib + AZD7762; first compound 1.265 µM) | relative viability (Idelalisib + AZD7762; first compound 4 µM) | relative viability (Pemetrexed + Foretinib; first compound 0.002 µM) | relative viability (Pemetrexed + Foretinib; first compound 0.006325 µM) | relative viability (Pemetrexed + Foretinib; first compound 0.02 µM) | relative viability (Pemetrexed + Foretinib; first compound 0.06325 µM) | relative viability (Pemetrexed + Foretinib; first compound 0.2 µM) | relative viability (Pemetrexed + Dasatinib; first compound 0.002 µM) | relative viability (Pemetrexed + Dasatinib; first compound 0.006325 µM) | relative viability (Pemetrexed + Dasatinib; first compound 0.02 µM) | relative viability (Pemetrexed + Dasatinib; first compound 0.06325 µM) | relative viability (Pemetrexed + Dasatinib; first compound 0.2 µM) | relative viability (Idelalisib + Lapatinib; first compound 0.4 µM) |
| --- | --- | --- | --- | --- | --- | --- | --- | --- | --- | --- | --- | --- | --- | --- | --- | --- | --- | --- | --- | --- |
| HOP-62 | 1 | 0.912 | 1.47 | 1.06 | 0.731 | 0.706 | 0.398 | 0.304 | 0.545 | 0.892 | 1.02 | 1.2 | 1.09 | 1.07 | 0.522 | 0.636 | 0.659 | 0.674 | 0.629 | – |
| LC-2-ad | 1.04 | 0.963 | 1.05 | 0.868 | 0.826 | 0.86 | 0.734 | 0.782 | 0.632 | 0.818 | 0.946 | 0.526 | 0.296 | 0.284 | 0.454 | 0.525 | 0.347 | 0.208 | 0.222 | 0.949 |
| SW 900 | – | – | – | – | 0.569 | 0.609 | 0.416 | 0.3 | 0.463 | 0.908 | 0.77 | 0.874 | 0.688 | 0.588 | 0.637 | 0.602 | 0.657 | 0.449 | 0.477 | – |
| NCI-H322M | 0.612 | 0.62 | 0.53 | 0.502 | 0.628 | 0.524 | 0.678 | 0.439 | 0.525 | 0.961 | 0.864 | 0.973 | 0.917 | 0.834 | 0.248 | 0.257 | 0.262 | 0.242 | 0.235 | 0.521 |
| SK-LU-1 | 0.851 | 0.866 | 0.998 | 0.661 | – | – | – | – | – | 0.71 | 0.888 | 0.923 | 0.783 | 0.801 | 0.184 | 0.205 | 0.185 | 0.198 | 0.162 | 0.617 |
| NCI-H1734 | 0.93 | 1.03 | 0.958 | 0.98 | 0.544 | 0.543 | 0.477 | 0.209 | 0.552 | 0.871 | 0.77 | 0.976 | 0.794 | 0.532 | 0.388 | 0.445 | 0.49 | 0.433 | 0.381 | 0.989 |
| HCC-44 | 1.02 | 1.01 | 1.07 | 1.14 | 1.04 | 0.998 | 1.03 | 0.991 | 1.11 | – | – | – | – | – | – | – | – | – | – | 1 |
| NCI-H1703 | 1.53 | 1.03 | 1.29 | 0.618 | – | 0.124 | – | 0.0966 | 0.126 | 0.304 | 0.283 | 0.415 | 0.345 | 0.369 | – | – | – | – | – | 0.961 |
| NCI-H2170 | 0.285 | 0.267 | 0.29 | 0.29 | 0.859 | 0.873 | 0.819 | 0.542 | 0.737 | 0.918 | 1.02 | 0.999 | 1 | 1.02 | 0.581 | 0.631 | 0.612 | 0.505 | 0.575 | 0.242 |

From the supplement of paper PMC10307832
